This is an account of results in patent publication US12384746B2, “Physics-driven discovery of novel small therapeutic compounds for use as a BCL-2 inhibitor” (BAHCESEHIR UNIVERSITESI, priority 2020, dated 2025).

Peptide text beside a SMILES is read from it. * marks the point of attachment. Boc = CC(C)(C)OC(=O)*

In this experiment the test system is HCT-116 cells. The experiment is described as follows: MTT cell proliferation assay on HCT-116 cells. In kind it is cell-based. The method, then:
For cell culture experiments various cancer cell lines, HCT-116 colon cancer, U87-MG glial tumor, MCF7 breast cancer cell lines were used. Cells were seeded with high glucose DMEM medium (Biosera) supplemented with 10% FBS (Gibco) and 1× penicillin/streptomycin (Multicell). Twenty-four hours prior to molecule treatment, 10,000 cells were seeded into each well of 24-well cell culture plates. Molecules were used by preparing 4 mM stock solution in DMSO (Amresco). For molecule treatment, molecule stock solutions were diluted in DMEM with 10% FBS and added onto cells in each corresponding well. Final concentration of vehicle DMSO was 2% at maximum. […] We calculated the number of cells to be seeded to make sure that none of the cells reaches more than 60% confluency during the treatment period, as higher plate confluency levels would slow down cell proliferation independently from the molecule treatment.
Values of half-maximal inhibitory concentration were (IC50) determined by MTT cell proliferation assays. […] 570 nm absorbance values were recorded and IC50 values were calculated by dose response—inhibition curves and nonlinear regression analysis on GraphPad Prism 8 software. […] Following the initial incubation day, molecules were added and after incubation with MTT at 37° C. for 4 hours, formazan was solubilized with DMSO (Sigma-Aldrich, St. Louis, USA) and absorbance was measured at 570 nm. […]
(Tetrazolium dyes change colour on reduction, which living cells bring about.)

With `CCC(C)C(NC(=O)C(Cc1c[nH]c2ccccc12)NC(=O)OC(C)(C)C)C(=O)NC(CC(C)C)C(N)=O` (stereo not drawn) [compound of formula I] (Boc-Trp-Ile-Leu-NH2; configuration not given here), the “proliferation of HCT-116 cells compared to vehicle group” value (HCT-116 cells, MTT assay, FIG. 1) is “reduced proliferation and apoptotic cell structures”. In addition, the IC50 (Homo sapiens, 72 h, HCT-116 colon cancer cells, single treatment, three days, 570 nm absorbance, read-out: IC50 (half-maximal inhibitory concentration), MTT cell proliferation) was found to be 17 µM.
